The text below walks through data of patent US20250100996A1, “HETEROCYCLOALKYL AND HETEROARYL COMPOUNDS AND PHARMACEUTICAL COMPOSITIONS THAT MODULATE IKZF2” (Plexium, Inc., priority 2021, published 2025).

Experiment [1] has as its target T1, human E3 ligase component cereblon (CRBN) (Homo sapiens, UniProt Q96SW2).
T1 construct: host or cells: HEK293T
Description: Cereblon (CRBN) target engagement, NanoBRET TE Intracellular E3 Ligase Assay in transfected HEK-293T cells. To be noted: read-out: CRBN Binding EC50. Summed up: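 Tracer displacement was read as the 610/450 nm BRET signal after 2 h at 37° C with an 11-point dilution series, typically 10 μM to 100 pM. Live HEK-293T cells expressed NanoLuc fused N-terminal to human CRBN together with DDB1. IC50 was fitted with a four-parameter logistic model.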

For experiment [2], the target named is T2, IKZF3 (Aiolos) (Homo sapiens, UniProt Q9UKT9).
T2 construct: Leu-Asp junction (codons ctcgac before the linker); mScarlet (behind P2A) (C, cleaved yes); expressed in transfected cells
Put plainly: IKZF3 reporter degradation assay (HEK 293T IKZF3-mNeonGreen reporter cell line). In kind it is cell-based. Conditions: HEK 293T IKZF3-mNeonGreen reporter, 24 hours incubation. From the text:
Polycistronic plasmids were constructed for the mammalian expression of fluorescent reporter fusions of human transcription factors IKZF1 (Ikaros), IKZF2 (Helios), and IKZF3 (Aiolos). The respective protein sequences had their C-terminal end joined to a GGGGS linker repeated three times followed by mNeonGreen, P2A sequence, and mScarlet. The DNA sequences of the open reading frames are as follows:
IKZF1, IKZF2, and IKZF3 constructs were cloned into the UCOE Hygromycin expression vectors (Millipore Sigma). Reporter constructs were transfected using cationic lipid reagents into adherent HEK 293T cells and stable integrants were selected by treatment with 200 μg/mL hygromycin B. Clonal populations were obtained from the population of stable integrants either by limiting dilution or fluorescence activated cell sorting.
The clonal stable cell lines were maintained under constant 200 μg/mL hygromycin B selection while being passaged for use in the degradation assays. […] The fluorescence intensity of the IKZF1/2/3-mNeonGreen (FITC channel) and mScarlet (PE channel) reporters were routinely analyzed by flow cytometry to confirm consistent expression levels between experiments.
The IKZF1/IKZF2/IKZF3 degradation assays were carried out by harvesting the HEK 293T reporter cell lines and resuspending the cells in media formulated for reduced background fluorescence (FluoroBrite; Thermo Fisher). The respective cell lines were seeded at a density of 4000 cells/well into black-walled 384-well optical grade assay tissue culture plates. The cells were incubated overnight at 37° C. to allow for attachment to the assay plate. Dilutions of the compounds were prepared in DMSO from 10 mM compound stocks. The assay plates were treated with appropriate concentrations of the compounds by dispensing the DMSO dilutions in quadruplicate wells with an upper limit of 0.5% final DMSO.
After 24 hours incubation with the compounds, the assay plates were imaged on an ImageXpress Pico microscopy system (cells maintained at 37° C. during imaging) to obtain the fluorescent readouts. The assay plates were imaged in the FITC and Tetramethylrhodamine (TRITC) channels to obtain the mNeonGreen fluorescence intensity (reporter degradation data) and mScarlet fluorescence intensity (for cell segmentation). 293T-IKZF1 and 293T-IKZF3 reporter cell lines were imaged with exposures of 500 milliseconds (ms) for both FITC and TRITC channels, while the 293T-IKZF2 reporter cell line was imaged with exposures of 1000 ms for FITC and 1250 ms for TRITC. The resulting data was analyzed with Cell Reporter Xpress software using the 2-channel cell scoring analysis with a “percent positive” readout. The TRITC channel was selected for the “nuclei” segmentation with a threshold of 20 while the FITC channel was selected for the “Marker 1” segmentation and a threshold of 100 for the IKZF1 and IKZF3 reporter lines. […] The minimum segmentation width was set to 6 micrometers and the maximum segmentation width was set to 15 micrometers for all cell lines. The DC50 calculations were determined by regression to best fit four-parameter logistic curves using GraphPad Prism.

Experiment [3] concerns the target T3, IKZF2 (Helios) (Homo sapiens, UniProt Q9UKS7).
T3 construct: Leu-Asp junction (codons ctcgac before the linker); mScarlet (behind P2A) (C, cleaved yes); expressed in transfected cells
Description: IKZF2 reporter degradation assay (HEK 293T IKZF2-mNeonGreen reporter cell line). In kind it is cell-based. Conditions: HEK 293T IKZF2-mNeonGreen reporter, 24 hours incubation. Summed up: (§1)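 Readout: percent of cells positive for the mNeonGreen-tagged IKZF reporter, imaged after 24 h of compound exposure at 37 °C in stable HEK 293T lines. The P2A-linked mScarlet defined the cells. DC50 values came from four-parameter logistic regression.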

For experiment [4], the target named is T4, IKZF2 (Helios) (Homo sapiens, UniProt Q96SW2+Q9UKS7).
T4 construct: Leu-Asp junction (codons ctcgac before the linker); mScarlet (behind P2A) (C, cleaved yes); expressed in transfected cells
The experiment is described as above. In kind it is cell-based. To be noted: @ 1 μM, HEK 293T IKZF2-mNeonGreen reporter, 24 hours incubation; for inhibition at 1 µM: HEK-293T, 24 h. Summed up: as §1

T4 sequence (Q9UKS7 whole entry): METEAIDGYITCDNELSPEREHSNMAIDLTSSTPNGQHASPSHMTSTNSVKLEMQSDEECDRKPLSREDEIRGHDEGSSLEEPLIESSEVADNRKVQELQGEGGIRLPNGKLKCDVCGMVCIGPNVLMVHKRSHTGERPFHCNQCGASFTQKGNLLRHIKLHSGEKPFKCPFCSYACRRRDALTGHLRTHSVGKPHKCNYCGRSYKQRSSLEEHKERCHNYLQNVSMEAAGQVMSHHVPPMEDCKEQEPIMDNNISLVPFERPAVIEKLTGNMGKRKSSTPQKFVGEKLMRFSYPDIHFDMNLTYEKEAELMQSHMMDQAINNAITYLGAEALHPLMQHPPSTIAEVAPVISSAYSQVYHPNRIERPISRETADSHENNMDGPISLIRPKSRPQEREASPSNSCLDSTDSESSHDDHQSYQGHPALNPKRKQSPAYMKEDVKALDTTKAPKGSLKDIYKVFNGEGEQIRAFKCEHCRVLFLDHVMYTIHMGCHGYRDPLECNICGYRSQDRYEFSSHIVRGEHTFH
T4 sequence (Q96SW2 whole entry): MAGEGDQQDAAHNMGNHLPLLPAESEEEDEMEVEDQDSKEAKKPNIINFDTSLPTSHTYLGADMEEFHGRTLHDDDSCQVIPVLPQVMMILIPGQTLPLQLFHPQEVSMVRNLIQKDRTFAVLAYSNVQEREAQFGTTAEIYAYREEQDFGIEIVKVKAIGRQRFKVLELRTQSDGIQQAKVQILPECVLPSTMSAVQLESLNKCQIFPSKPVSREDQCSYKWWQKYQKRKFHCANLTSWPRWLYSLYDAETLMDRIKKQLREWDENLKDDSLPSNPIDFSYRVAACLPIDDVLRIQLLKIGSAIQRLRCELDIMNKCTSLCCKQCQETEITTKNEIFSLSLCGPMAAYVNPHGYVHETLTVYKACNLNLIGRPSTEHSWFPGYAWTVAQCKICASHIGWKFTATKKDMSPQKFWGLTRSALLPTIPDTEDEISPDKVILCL
T4 sequence (Q16531 whole entry partner): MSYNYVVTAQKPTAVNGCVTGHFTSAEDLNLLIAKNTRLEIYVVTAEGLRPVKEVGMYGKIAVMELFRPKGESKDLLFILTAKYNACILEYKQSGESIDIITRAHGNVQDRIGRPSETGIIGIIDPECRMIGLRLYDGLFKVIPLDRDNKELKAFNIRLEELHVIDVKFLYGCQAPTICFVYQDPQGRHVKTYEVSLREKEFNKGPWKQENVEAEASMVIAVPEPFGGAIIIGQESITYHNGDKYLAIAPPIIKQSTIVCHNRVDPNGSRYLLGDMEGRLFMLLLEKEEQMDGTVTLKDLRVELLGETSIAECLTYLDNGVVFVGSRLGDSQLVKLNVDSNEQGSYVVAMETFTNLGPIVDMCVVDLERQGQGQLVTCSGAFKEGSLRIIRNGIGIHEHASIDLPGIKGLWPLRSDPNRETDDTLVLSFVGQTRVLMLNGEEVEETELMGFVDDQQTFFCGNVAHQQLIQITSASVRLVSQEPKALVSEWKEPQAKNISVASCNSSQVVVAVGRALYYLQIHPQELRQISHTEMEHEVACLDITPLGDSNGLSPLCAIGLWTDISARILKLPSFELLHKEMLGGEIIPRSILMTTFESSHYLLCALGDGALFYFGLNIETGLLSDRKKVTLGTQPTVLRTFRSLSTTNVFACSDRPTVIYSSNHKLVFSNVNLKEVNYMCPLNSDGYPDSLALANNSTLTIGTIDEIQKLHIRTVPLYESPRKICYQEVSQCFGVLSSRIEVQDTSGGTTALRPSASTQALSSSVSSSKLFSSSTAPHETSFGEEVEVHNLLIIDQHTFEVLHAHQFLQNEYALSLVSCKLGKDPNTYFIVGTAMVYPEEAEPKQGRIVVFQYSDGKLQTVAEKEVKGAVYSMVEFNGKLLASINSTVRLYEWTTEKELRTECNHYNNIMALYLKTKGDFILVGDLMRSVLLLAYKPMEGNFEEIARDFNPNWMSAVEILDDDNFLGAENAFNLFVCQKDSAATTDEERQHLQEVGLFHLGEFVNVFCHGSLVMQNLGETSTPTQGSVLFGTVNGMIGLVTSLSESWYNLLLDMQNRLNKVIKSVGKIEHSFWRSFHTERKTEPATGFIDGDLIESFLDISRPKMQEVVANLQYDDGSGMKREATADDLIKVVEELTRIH
T3 sequence (Q9UKS7 whole entry): as the sequence (Q9UKS7 whole entry) above
T3 sequence (Q96SW2 whole entry, further chain): as the sequence (Q96SW2 whole entry) above
T3 sequence (Q16531 whole entry partner): as the sequence (Q16531 whole entry partner) above
T2 sequence (Q96SW2 whole entry partner): as the sequence (Q96SW2 whole entry) above
T2 sequence (Q16531 whole entry partner): as the sequence (Q16531 whole entry partner) above
T2 sequence (Q9UKT9 whole entry): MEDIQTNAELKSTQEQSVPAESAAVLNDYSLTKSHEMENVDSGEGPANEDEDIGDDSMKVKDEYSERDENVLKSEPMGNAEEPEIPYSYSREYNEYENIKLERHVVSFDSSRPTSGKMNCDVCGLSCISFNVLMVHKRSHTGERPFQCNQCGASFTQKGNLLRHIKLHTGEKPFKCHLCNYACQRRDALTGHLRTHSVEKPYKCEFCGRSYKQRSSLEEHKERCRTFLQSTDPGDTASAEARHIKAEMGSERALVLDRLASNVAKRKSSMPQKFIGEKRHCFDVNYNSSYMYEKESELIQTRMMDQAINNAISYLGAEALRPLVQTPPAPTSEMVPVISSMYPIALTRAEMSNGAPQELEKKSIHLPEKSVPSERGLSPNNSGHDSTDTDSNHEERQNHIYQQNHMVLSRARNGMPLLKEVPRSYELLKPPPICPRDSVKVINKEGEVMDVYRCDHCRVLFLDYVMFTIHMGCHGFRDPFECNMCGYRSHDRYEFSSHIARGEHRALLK
T1 sequence (Q96SW2 whole entry): as the sequence (Q96SW2 whole entry) above
T1 sequence (Q16531 whole entry partner): as the sequence (Q16531 whole entry partner) above

Consider `O=C1CCC(N2Cc3cc(OC4CCCCC4N4CC(c5cccnn5)C4)ccc3C2=O)C(=O)N1` (centres unmarked) [Compound 142-B, 3-(1-oxo-5-((2-(3-(pyridazin-3-yl)azetidin-1-yl)cyclohexyl)oxy)isoindolin-2-yl)piperidine-2,6-dione], for which the EC50 in experiment [1] is 167 nM. The DC50 is more than 30 µM in experiment [2] and 605 nM in experiment [3]. Also, testing at 1 µM in experiment [4] gave an inhibition of 31.5%.
The matching figures for `O=C1CCC(N2Cc3cc(O[C@@H]4CCCC[C@@H]4N4CC(c5ccncc5F)C4)ccc3C2=O)C(=O)N1` (mixture of isomers) [Compound 153-B, Rac-3-(5-(((cis)-2-(3-(3-fluoropyridin-4-yl)azetidin-1-yl)cyclohexyl)oxy)-1-oxoisoindolin-2-yl)piperidine-2,6-dione]: 32 nM, more than 30 µM, 16 nM and 73.4%.
`O=C1CCC(N2Cc3cc(O[C@@H]4CCCC[C@@H]4N4CC(c5cncc(Cl)c5)C4)ccc3C2=O)C(=O)N1` (mixture of isomers) [Compound 155-B, Rac-3-(5-(((cis)-2-(3-(5-chloropyridin-3-yl)azetidin-1-yl)cyclohexyl)oxy)-1-oxoisoindolin-2-yl)piperidine-2,6-dione]: the EC50 in experiment [1] came to 18 nM. Moreover, the DC50 in experiment [2] is more than 30 µM; in experiment [3], 11 nM. Further, the inhibition at 1 µM in experiment [4] stood at 75.5%.
Turning to `O=C1CCC(N2Cc3cc(O[C@H]4CCCC[C@@H]4N4CC(c5ccc(C(F)(F)F)nc5)C4)ccc3C2=O)C(=O)N1` (single isomer, unassigned) [Compound 127-B], the EC50 in experiment [1] is 26 nM. Besides, the “IKZF3 % Degradation @ 1 μM” value in experiment [2] (@ 1 μM) came to 39%. In addition, the DC50 in experiment [2] came out at 0.0633 µM; in experiment [3], 6 nM. The “IKZF2 % Degradation @ 1 μM” value in experiment [4] was found to be 95.4%.
As for `O=C1CCC(N2Cc3cc(O[C@H]4CCCC[C@@H]4N4CC(c5ccc(C(F)(F)F)nc5)C4)ccc3C2=O)C(=O)N1` (single isomer, unassigned) [Compound 126-B], the concentration giving a half-maximal response (EC50) in experiment [1] was 7 nM. The DC50 in experiment [2] was determined as 0.0866 µM; in experiment [3], 6 nM. Besides, the inhibition at 1 µM came out at 39.5% in experiment [2] (HEK-293T, 24 h, @ 1 μM) and 94.8% in experiment [4].
For the compound `O=C1CCC(N2Cc3cc(O[C@H]4CCCC[C@@H]4N4CC(c5ccc(Cl)cn5)C4)ccc3C2=O)C(=O)N1` (single isomer, unassigned) [Compound 100-B], the EC50 in experiment [1] is 20 nM. In addition, the results for the DC50 in experiment [2] and in experiment [3] were more than 30 µM and 5 nM, respectively. The “IKZF2 % Degradation @ 1 μM” value in experiment [4] is recorded as 80.5%.
On to `O=C1CCC(N2Cc3cc(O[C@@H]4CCCC[C@@H]4N4CC(c5ccc6ccccc6n5)C4)ccc3C2=O)C(=O)N1` (single isomer, unassigned) [Compound 91-B], for which the EC50 in experiment [1] amounted to 5 nM. For the same compound, the figures for the DC50 in experiment [2] and in experiment [3] were more than 30 µM and 29 nM, respectively. For the same compound, the inhibition at 1 µM in experiment [4] turned out to be 47.3%.
The matching figures for `O=C1CCC(N2Cc3cc(O[C@H]4CCCC[C@@H]4N4CC(c5ccc6ccccc6n5)C4)ccc3C2=O)C(=O)N1` (mixture of isomers) [Compound 152-B, Rac-3-(1-oxo-5-(((trans)-2-(3-(quinolin-2-yl)azetidin-1-yl)cyclohexyl)oxy)isoindolin-2-yl)piperidine-2,6-dione]: 3 nM, more than 30 µM, 41 nM and 43.9%.
The matching figures for `O=C1CCC(N2Cc3cc(O[C@@H]4CCCC[C@@H]4N4CC(c5cc(Cl)ccn5)C4)ccc3C2=O)C(=O)N1` (mixture of isomers) [Compound 165-B, Rac-3-(5-(((cis)-2-(3-(4-chloropyridin-2-yl)azetidin-1-yl)cyclohexyl)oxy)-1-oxoisoindolin-2-yl)piperidine-2,6-dione]: 13 nM, more than 30 µM, 9 nM and 58.6%.
For `O=C1CCC(N2Cc3cc(O[C@H]4CCCC[C@@H]4N4CC(c5ncc(C(F)(F)F)cn5)C4)ccc3C2=O)C(=O)N1` (single isomer, unassigned) [Compound 123-B], the EC50 in experiment [1] was determined as 1 nM. For the same compound, the figures for the DC50 in experiment [2] and in experiment [3] were more than 30 µM and 0.1 nM, respectively. The “IKZF2 % Degradation @ 1 μM” value in experiment [4] came to 69.6%.
As to `CC(=O)N1CCC(C2CN([C@H]3CCCC[C@@H]3Oc3ccc4c(c3)CN(C3CCC(=O)NC3=O)C4=O)C2)CC1` (stereo partly drawn) [Compound 12-A, 3-(5-(((1S,2S)-2-(3-(1-acetylpiperidin-4-yl)azetidin-1-yl)cyclohexyl)oxy)-1-oxoisoindolin-2-yl)piperidine-2,6-dione], the EC50 in experiment [1] is 52 nM. In addition, the DC50 is more than 30 µM in experiment [2] and 12 nM in experiment [3]. The same compound yielded an inhibition at 1 µM in experiment [4] of 83.1%.
Regarding `O=C1CCC(N2Cc3cc(O[C@H]4CCCC[C@@H]4N4CC(c5ncncc5Cl)C4)ccc3C2=O)C(=O)N1` (single isomer, unassigned) [Compound 93-B], in experiment [1], the EC50 was determined as 64 nM. Further, the DC50 was more than 30 µM in experiment [2] and 21 nM in experiment [3]. Further, in experiment [4], the “IKZF2 % Degradation @ 1 μM” value amounted to 78%.
As for `O=C1CCC(N2Cc3cc(OC4CCCCC4N4CC(c5ccnnc5)C4)ccc3C2=O)C(=O)N1` (centres unmarked) [Compound 143-B, 3-(1-oxo-5-((2-(3-(pyridazin-4-yl)azetidin-1-yl)cyclohexyl)oxy)isoindolin-2-yl)piperidine-2,6-dione], the EC50 in experiment [1] was 247 nM. Moreover, the DC50 in experiment [2] is more than 30 µM; in experiment [3], 581 nM. Moreover, at 1 µM the inhibition in experiment [4] was 20.4%.
The matching figures for `O=C1CCC(N2Cc3cc(O[C@H]4CCCC[C@@H]4N4CC(c5ccncc5F)C4)ccc3C2=O)C(=O)N1` (single isomer, unassigned) [Compound 102-B]: 15 nM, more than 30 µM, 10 nM and 71.1%.
Take `Cc1cnccc1C1CN([C@H]2CCCC[C@@H]2Oc2ccc3c(c2)CN(C2CCC(=O)NC2=O)C3=O)C1` (single isomer, unassigned) [Compound 112-B]: in experiment [1], the concentration giving a half-maximal response (EC50) came out at 20 nM. The DC50 in experiment [2] was more than 30 µM; in experiment [3], 12 nM. Also, in experiment [4], testing at 1 µM gave an inhibition of 67.1%.
In the case of `O=C1CCC(N2Cc3cc(O[C@H]4CCCC[C@@H]4N4CC(c5cncc(Cl)c5)C4)ccc3C2=O)C(=O)N1` (single isomer, unassigned) [Compound 117-B], in experiment [1], the EC50 is 21 nM. Besides, the figures for the 50% degradation concentration (DC50) in experiment [2] and in experiment [3] were more than 30 µM and 25 nM, respectively. Besides, in experiment [4], the “IKZF2 % Degradation @ 1 μM” value is reported as 68.4%.
The matching figures for `O=C1CCC(N2Cc3cc(O[C@H]4CCCC[C@@H]4N4CC(c5ncc(C6CC6)cn5)C4)ccc3C2=O)C(=O)N1` (single isomer, unassigned) [Compound 135-B]: 3 nM, more than 30 µM, 13 nM and 77.7%.
Regarding `O=C1CCC(N2Cc3cc(O[C@@H]4CCCC[C@@H]4N4CC(c5ccc6ccccc6n5)C4)ccc3C2=O)C(=O)N1` (mixture of isomers) [Compound 146-B, Rac-3-(1-oxo-5-(((cis)-2-(3-(quinolin-2-yl)azetidin-1-yl)cyclohexyl)oxy)isoindolin-2-yl)piperidine-2,6-dione], the EC50 in experiment [1] worked out at 12 nM. Further, the DC50 in experiment [2] was more than 30 µM; in experiment [3], 7 nM. 1 µM produced 74.9% inhibition in experiment [4].

For orientation: EC50 means the midpoint of the concentration-response curve. As usually defined, the DC50 is the concentration at which degradation of the target reaches its halfway point. Lower therefore signals degradation at low concentration. Usually inhibition stands for how much of the control response was suppressed. Lower therefore signals a weak effect.
